Consider three molecules from patent publication US20250367225A1 (priority 2022, published 2025).

The structures appear in SMILES notation. Entries after “also recorded” stand apart in the source; their conditions may differ. Read-outs that look alike come from different tables or passages of the source.

Series [1] has as its system ic-SARS-COV-2-mNeon infection in Huh7 cells. Type of series: cell-based, human. As to conditions: for inhibition of ic-SARS-COV-2-mNeon infection by supernatant of stimulated human iNKT cells: 1 μg/mL lipid, iNKT + HeLa-hCD1d 24 h, supernatant on Huh7 cells.
The subject of series [2] is human RSV A2 strain. Type of series: in vivo, BALB/c mice. The settings on record: 2 μg IN 2 days prior, 600,000 pfu RSV A2.
Series [3] deals with influenza A virus (H1N1) PR/8/34 (PR8) strain. Description: Influenza A PR8 challenge of C57BL/6 mice. It is filed as in vivo.
For series [4], the system named is SARS-COV-2 (USA/WA1). Description: Direct antiviral effect against SARS-COV-2 in Vero E6 cells (CPE). As to conditions: Vero E6, MOI 0.1, 70 h. It is filed as cell-based. The protocol:
After 30 min, SARS-COV-2 (USA/WA1) was added to each well to final MOI 0.1. Cells were incubated at 37 °C/5% CO2 for 70 h prior to scoring CPE. Percent inhibition was calculated from fold reduction in CPE over control wells receiving no drug. Remdesivir (RDV) was used as a positive control for the assay. Phosphatidylethanolamine (PE) and Biotin-phosphatidylethanolamine (B-PE) were used as a negative control. […] C57BL/6 mice (N=10) were given 2 μg of 7DW8-5 or saline by IN route 2 days before intranasal challenge with 5,000 pfu (lethal dose) of the PR8 strain. Kaplan-Meier Survival curve was plotted.

The test system of series [5] is cytokines/chemokines. Description: Cytokine/chemokine 31-Plex profile after intranasal administration. It is filed as in vivo, BALB/c mice. The settings on record: 2 μg IN; one day after; BAL, nasal turbinate and lung homogenates, sera.
Series [6] deals with IFNγ. It is filed as in vivo, BALB/c mice. As to conditions: 2 μg IN; 24 h; nasal turbinate and lung homogenate supernatants, sera.
Series [7] has as its system lung mononuclear cells. Description: Single-cell gene-expression analysis of lung mononuclear cells. It is filed as in vivo, BALB/c mice. As to conditions: 2 μg IN; 24 h; lung CD45+ cells.
Series [8] concerns splenocytes. Description: IFN-γ-secreting splenocytes in response to glycolipids in culture (mouse). It is filed as cell-based. From the text:
(§1) FIGS. 12A-B show relative number of IFN-γ-secreting splenocytes in hamster versus mouse in response to glycolipids in culture.
(§2) The relative number of IFN-γ-secreting splenocytes in hamster versus mouse in response to glycolipids in culture are shown in FIGS. 12A-B. 7DW8-5 administration affects IFN-γ-secreting splenocyte numbers in hamsters as shown in FIG. 12A. Cytokine induction

For series [9], the system named is splenocytes. Description: IFN-γ-secreting splenocytes in response to glycolipids in culture (hamster). Type of series: cell-based.
Description: as §1, §2

Series [10] is described as follows: Toxicity noted in mice in the current study. It is filed as in vivo. The source says: (§3) Without being bound by theory, 7DW8-5 can be an agent for pre-exposure prophylaxis to prevent infections by SARS-COV-2, RSV, influenza virus, and possibly other clinically important respiratory viruses. It is a chemical compound that is thermostable and thus simple to ship and store, cheap to manufacture, and easy to administer intranasally. It is expected that 7DW8-5 is similarly effective in people. […] Second, iNKT cells constitute up to 1% of peripheral blood mononuclear cells in both humans and mice^38,39, although the variability is greater among humans^38.

The nature of series [11]: Toxicity noted in hamsters in the current study. Type of series: in vivo.
Description: as §3

Series [12] is described as follows: Thermostability (stated). It is filed as physicochemical. The settings on record: stated in discussion, no test described.
For series [13] the following is noted: up to 100 μg intramuscularly; cited from earlier work.
In series [14] the test system is mouse iNKT cells. The settings on record: mouse iNKT cells in vitro; cited from earlier work.
Series [15] concerns human iNKT cells. The settings on record: human iNKT cells in vitro; cited from earlier work.
For series [16] the following is noted: 6 IV doses of 0.12 mg/kg, cancer patients; cited from earlier work.

`CCCCCCCC/C=C\CCCCCCCC(=O)OC[C@H](COP(=O)(O)OCCNC(=O)CCCCCN)OC(=O)CCCCCCC/C=C\CCCCCCCC` [1,2-dioleoyl-sn-glycero-3-phosphoethanolamine-N-(hexanoylamine), reference compound]: the “inhibition of ic-SARS-COV-2-mNeon infection by supernatant of stimulated human iNKT cells” value in series [1] was “not”.

`CCCCCCCCCCCCCC[C@@H](O)[C@@H](O)[C@H](CO[C@H]1O[C@H](CO)[C@H](O)[C@H](O)[C@H]1O)NC(=O)CCCCCCCCCCc1ccc(F)cc1` [7DW8-5]: the body weight result is recorded as “significantly prevented weight loss” in series [2] and “significantly maintained body weight” in [3] (2 μg IN 2 days prior, 5,000 pfu PR8, day 3). Moreover, the “virus replication in lung tissues” value in series [2] (day 4, TCID50 in Hep2 cells) is on record as “inhibited virus replication; also recorded: decreased”. For the same molecule, the body weight loss entry in series [3] (2 μg IN one day before 200 pfu PR8, day 3 (FIG. 7)) is listed as “lack of body weight loss”; in series [3] (2 μg IN, 5000 pfu PR8, monitored every day after challenge (FIG. 8C)), “ameliorated”. For the same molecule, the survival in series [3] (2 μg IN, lethal dose 5×10^3 PFU PR8, all control mice died by Day 10) is 8 of 10 and higher probability of survival. In addition, the “direct antiviral activity against SARS-COV-2 in vitro” value in series [4] is recorded as “no direct antiviral activity; also recorded: lack of a direct antiviral effect”. Further, the “cytokines/chemokines incl. IFN-γ, IL-5, IL-6, IP-10, TNF-α, MCP1, MIG” value in series [5] is on record as “Marked upregulation”. Also, the “IFN-γ induction by ELISA” value in [6] is given as “No evidence of IFN-γ induction; also recorded: minimal level”. Further, the “IFN-γ production in proliferative NK cells, T cells, iNKT cells (single-cell analysis)” value in series [7] is on record as “apparent shift toward IFN-γ production”. In addition, in series [8], the IFN-γ-secreting splenocytes entry is on record as “increases”. In addition, the IFN-γ-secreting splenocyte numbers result in series [9] is given as “affects”. In [1], the “inhibition of ic-SARS-COV-2-mNeon infection by supernatant of stimulated human iNKT cells” value was “display anti-viral activity; also recorded: significantly inhibit”. The “inhibition by supernatant with neutralizing anti-human IFN-γ Ab added” value in series [1] (anti-human IFN-γ antibody 1 μg/mL) is on record as “inhibited; also recorded: completely abolished”. Moreover, the toxicity entry in series [10] and in series [11] was “lack of toxicity” in each case. The thermostability result in series [12] is “thermostable”. Besides, the adverse reactions entry in series [13] was “did not lead to any adverse reactions”. Also, the “immunostimulatory activity compared with α-GalCer” value in series [14] is “even more potent immunostimulatory activity”. The immunostimulatory activity entry in series [15] is “potent stimulatory effect”.

Take `CCCCCCCCCCCCCCCCCCCCCCCCCC(=O)NC(CO[C@H]1O[C@H](CO)[C@H](O)[C@H](O)[C@H]1O)[C@H](O)[C@H](O)CCCCCCCCCCCCCC` (stereo partly drawn) [α-GalCer, N-[(3S,4R)-3,4-dihydroxy-1-[(2S,3R,4S,5R,6R)-3,4,5-trihydroxy-6-(hydroxymethyl)oxan-2-yl]oxyoctadecan-2-yl]hexacosanamide]: the toxicity result in series [16] is recorded as “without evidence of toxicity”.
